The numbers were not newly measured in patent US20250170128A1, “Obicetrapib and SGLT2 Inhibitor Combination” (NE[…] B.V. (Dutch Chamber of Commerce No. 5597 1946), priority 2021, published 2025), which cites them from elsewhere.

One data set has as its target T1, CETP (Homo sapiens, UniProt P11597).
T1 construct: CETP is a plasma protein secreted primarily by liver and adipose tissue
T1 sequence (P11597 18-493): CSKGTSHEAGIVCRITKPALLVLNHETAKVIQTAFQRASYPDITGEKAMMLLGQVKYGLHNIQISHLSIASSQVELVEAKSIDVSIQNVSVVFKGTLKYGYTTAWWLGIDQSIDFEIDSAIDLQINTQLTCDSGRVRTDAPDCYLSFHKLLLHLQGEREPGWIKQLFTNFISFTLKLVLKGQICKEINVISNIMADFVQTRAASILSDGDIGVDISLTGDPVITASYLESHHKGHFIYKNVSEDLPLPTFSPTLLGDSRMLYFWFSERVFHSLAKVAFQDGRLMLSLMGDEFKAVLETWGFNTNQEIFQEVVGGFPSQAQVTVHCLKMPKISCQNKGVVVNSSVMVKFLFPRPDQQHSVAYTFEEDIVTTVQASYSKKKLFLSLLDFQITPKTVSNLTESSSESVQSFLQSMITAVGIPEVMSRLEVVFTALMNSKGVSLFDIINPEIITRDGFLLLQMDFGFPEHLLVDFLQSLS
Conditions: repeated daily dosages (once a day) as low as 2.5 mg.

The conditions of data set [1]: clinical studies.

On to `CCOC(=O)N1c2ccc(C(F)(F)F)cc2[C@@H](N(Cc2cc(C(F)(F)F)cc(C(F)(F)F)c2)c2ncc(OCCCC(=O)O)cn2)C[C@H]1CC` [compound of Formula (I), (2R,4S)-4-{[3,5-bis(trifluoromethyl)benzyl]-[5-(3-carboxypropoxy)pyrimidin-2-yl]amino}-2-ethyl-6-trifluoromethyl-3,4-dihydro-2H-quinoline-1-carboxylic acid ethyl ester], for which the CETP inhibition entry on CETP is “near complete CETP-inhibition”. Moreover, in data set [1], the serious side effects entry is listed as “does not lead to serious side effects” and the tolerability result is “well tolerated”.
